From patent publication US20170136008A1, “OXABICYCLOHEPTANES AND OXABICYCLOHEPTENES FOR THE TREATMENT OF OVARIAN CANCER” (priority 2014, published 2017)

Key:
[1] = tested on: OVCAR-8 ovarian cancer cells; experiment: MTT cytotoxicity assay, OVCAR-8; format: cell-based, human; conditions: Homo sapiens, OVCAR-8, OVCAR8, read-out: IC50, viability of ovarian cancer cell line
Experimental: SKOV-3 ovarian cancer cells were purchased from American Type Culture Collection (ATCC) (Manassas, Va.). SKOV-3 cells were cultured in McCoy's 5A medium (ATCC, Manassas, Va.) supplemented with 10% fetal bovine serum and 100 units/mL penicillin G sodium, 100 ug/mL streptomycin sulfate, and 292 μg/ml, L-glutamine (BioWhittaker, Wakersville, Md.). Luciferase-expressing cells were generated by infecting SKOV-3 cells with pCLNCX-luciferase retrovirus (SKOV-3-Luc) as previously reported (Wei, B. R. et al. 2009). Human OVCAR-8 ovarian cancer cells were provided by the National Cancer Institute (part of the NCI-60 collection). The PEO1, PEO4, and PEO6 ovarian cancer cell lines have previously been characterized (Langdon, S. P. et al. 1988) and were kindly provided by Dr. Ian Goldlust (National Center for Advancing Translational Sciences, Shady Grove, Md.). […]
Cell survival was measured by the 3-(4,5-dimethylthiazol-2-yl)-2,5-diphenyltetrazolium bromide (MTT, Invitrogen) assay. […] Absorbance values were determined at […] on a Spectra Max 250 spectrophotometer (Molecular Devices, Sunnyvale, Calif.). […] Cell viability was analyzed via the MTT assay as described above. […]

OVCAR-8 NT shRNA cells = experiment: Cell viability (MTT) assay, OVCAR-8 NT shRNA; format: cell-based; conditions: Homo sapiens; OVCAR-8 NT shRNA (control)
Experimental: Cell survival was measured by the 3-(4,5-dimethylthiazol-2-yl)-2,5-diphenyltetrazolium bromide (MTT, Invitrogen) assay. Cells were seeded at a density of 5,000 cells per well in 96-well plates and incubated at 37° C. in humidified 5% CO2 for 24 hours. The 50% inhibitory concentration (IC50) values were defined as the drug concentrations required to reduce cellular proliferation to 50% of the untreated control well. […] All MTT assays were carried out according to the manufacturer's instructions (Molecular Probes, Eugen, Oreg.). Absorbance values were determined at […] on a Spectra Max 250 spectrophotometer (Molecular Devices, Sunnyvale, Calif.). All MTT assays were performed in triplicate. […] Cells were treated with both drugs for 72 h. Cell viability was analyzed via the MTT assay as described above. Experiments were performed in triplicate, and the data are presented as a percent mean±SD.
To stably knockdown expression of PP2AC, a pLKO.1-puro plasmid-based […] shRNA targeting the sequence: […] (clone ID:TRCN0000002483, Sigma-Aldrich) was employed (PP2AC-shRNA). Additionally, a non-targeting shRNA plasmid (NT-shRNA) that targets no known human sequence was utilized as a control. […]

OVCAR-8 cells = experiment: Cell-cycle analysis (FACS), OVCAR-8; format: cell-based, human; conditions: LB100 2 μM
Experimental: For cell-cycle analysis, cells were washed with PBS and fixed overnight in ice-cold 70% ethanol and stored at 4° C. Cells were then centrifuged and resuspended in 100 U RNAse (Sigma-Aldrich), and incubated at 37° C. for 20 min. Propidiumidodide solution (Invitrogen, 500 μL, 50 μg/mL in DPBS) was added to each tube and incubated in the dark at 4° C. overnight. Flow cytometry analysis was performed with CellQuestPro and data analysis was completed with ModFit LT. All data is in triplicate and presented as a percent mean±SD.

[2] = tested on: DNA damage response, checkpoint and apoptosis proteins in SKOV-3 cells; experiment: Immunoblotting, SKOV-3 cells; format: cell-based, human
Experimental: (§1) Whole cell and homogenized tumor tissues were lysed in NP-40 lysis buffer [50 mM Tris/HCl, pH 7.4, 150 mM NaCl and 1% Nonidet P40, supplemented with Complete Protrase Inhibitor Cocktail tablets and PhosStop phosphatase inhibitors (Roche, Indianapolis, Ind.)] and prepared as previously described (Madigan, J. P. et al. 2009). Protein (40 μg) was resolved on SDS/PAGE (12% or 15% gels) and transferred onto Immobilon PVDF membrane. The membrane was then blocked for 1 hour at room temperature in 5% (w/v) non-fat milk in TBS-Tween and probed overnight with primary antibodies. After extensive washing, cells were probed with anti-rabbit or anti-mouse IgG-horseradish per oxidase (HRP)-conjugated secondary antibodies (Cell Signaling Technology, Danvers, Mass.) in blocking buffer for 1 h. Membranes were subsequently incubated in Immobilon Western blot Chemiluminescent HRP Substrate (Millipore) and developed on biomax XAR film (Kodak). Antibodies were purchased from Cell Signaling Technology: γH2AX (Ser139), p-Wee1 (Ser 642), Wee1, p-cdc2 (Tyr15), p-BRCA1 (Ser1524), p-Chk1 (Ser345), p-Chk1 (Ser317), Chk-1, phospho-Chk2 (Thr68), PP2Ac, cleaved caspase-3 (Asp175), cleaved PARP (Asp214), p-histone H3 (Ser10), p-ATR (Ser428), and p-(Ser)14-3-3 binding motif.

[3] = tested on: p-Chk1 (S345) and apoptosis proteins in OVCAR-8 cells; experiment: Immunoblotting, OVCAR-8 cells; format: cell-based, human; conditions: after 1 h cisplatin, recovery up to 8 h, vs media alone
Experimental: as §1, with “motif. […]” for “motif.”

CN1CCN(C(=O)C2C(C(=O)O)[C@H]3CC[C@@H]2O3)CC1 (stereo partly drawn) [LB100]
IC50 [1]: 5.5 ± 0.5 µM | IC50 (OVCAR-8 NT shRNA cells): 15.7 ± 1.3 µM | G1 (%) (OVCAR-8 cells; 24 h): 45.4 ± 1.5% | G2/M (%) (OVCAR-8 cells; 24 h): 17.6 ± 0.4% | S (%) (OVCAR-8 cells; 24 h): 37.0 ± 1.6% | G1 (%) (OVCAR-8 cells; 48 h): 55.3 ± 0.4% | G2/M (%) (OVCAR-8 cells; 48 h): 14.9 ± 1.5% | S (%) (OVCAR-8 cells; 48 h): 29.9 ± 1.1% | expression of p-Ser14-3-3 binding motifs compared to control treatment ([2]; LB100-treated SKOV-3 cells): widespread increased expression | phosphorylation of γH2AX, Chk2, and BRCA1 at 24 h, and JNK at 72 h ([2]; SKOV-3, LB100): enhanced and prolonged | phosphorylation of Wee-1 compared to control ([2]; SKOV-3, LB100 5 μM, 24 h): induced hyperphosphorylation | phosphorylation of Chk1 at S345 [3]: significantly increased
